Entries after “also recorded” stand apart in the source; their conditions may differ.
Legend:
[1] = tested on: A549, HeLa, and HepG2 human cancer cell lines; experiment: Cell Titer-Glo cell growth inhibition, summary statements over all three cell lines; format: cell-based; conditions: with respect to cisplatin
Protocol: (§1) The cell growth inhibition effects of gold(I) complexes 1-4 and cisplatin were measured by the Cell Titer-Glo® luminescence-based assay against the A549 (human lung carcinoma), HeLa (human cervical cancer), and HepG2 (human liver cancer) cell lines according to manufacturer's protocol. Briefly, the cell suspensions were added to each well of 384-w plate at a suitable density (total volume of 40 μL). The margin wells of plate were filled with PBS buffer. The gold(I) complexes were added at various concentrations in triplicate (10 μL solutions of the complex added to the plate), then the plate was incubated for 72 hours in 5% CO2 incubator at 37° C. After that the Cell Titer reagent was added to each tested well and stirred for 2 minutes on an orbital shaker. […] Luminescence signals were measured on PHERAstar Plus. […] The potential effect of the testing complexes on cell growth inhibition expressed as IC50 values was calculated by the formula below: Cell growth Inhibition %=100-100*(Luminescencecomplex)/(LuminescenceDMSO) Cell viability %=100*(Luminescencecomplex)/(LuminescenceDMSO)
(§2) The gold(I) complexes 1-4 and cisplatin were examined for their cell growth inhibition effects against A549, HeLa, and HepG2 human cancer cell lines using Cell Titer-Glo® luminescence-based assay. […]

[2] = tested on: HepG2 (human liver cancer) cell line; experiment: Cell Titer-Glo luminescence-based cell growth inhibition assay, HepG2; conditions: HepG2 cells, 72 hours incubation, spread in brackets
Protocol: as §1, §2

[3] = tested on: HeLa (human cervical cancer) cell line; experiment: Cell Titer-Glo luminescence-based cell growth inhibition assay, HeLa; conditions: HeLa cells, 72 hours incubation, spread in brackets
Protocol: as §1, §2

**Q.** For CN(C)C(=S)[S][Au][PH](c1ccccc1)(c1ccccc1)[C@@H]1CCCC[C@H]1N [gold(I) complex 2], which “inhibition of cell proliferation (in words)” value [1] is on record?
**A.** Its value is “excellent inhibition of cell proliferation; also recorded: best inhibition among the three”.

**Q.** Which “inhibition of cell proliferation (in words)” value [1] does the source give for N[C@@H]1CCCC[C@H]1[PH]([Au][Cl])(c1ccccc1)c1ccccc1 [gold(I) complex 1, [Au(ACP)Cl]] here?
**A.** The value was “excellent inhibition of cell proliferation”.

**Q.** For N.N.[Cl][Pt][Cl] [Cisplatin, cisplatin], which IC50 [2] is on record?
**A.** The IC50 was 9.6 µM.

**Q.** What about the IC50 [3] of the same compound?
**A.** The IC50 was 21.4 µM.
